{"source": "patent US20240002491A1", "about": "“METHODS FOR SELECTING PATIENTS FOR TREATMENT WITH AN NGF ANTAGONIST” (Regeneron Pharmaceuticals, Inc., priority 2022, published 2024)", "test_system": "adults with moderate-to-severe chronic pain associated with osteoarthritis (OA) of the knee or hip", "test": "FACT OA1 (NCT03161093, R475-OA-1611) Phase 3 trial, WOMAC pain and physical function", "format": "in vivo, human", "details": "FACT OA1, Week 16; fasinumab 1 mg Q4W, naproxen 2 × 500 mg/day", "text": "NCT02683239 (R475-PN-1523, or “FACT LTS”), NCT03161093 (R475-OA-1611, or “FACT OA1”), and NCT03304379 (R475-OA-1688, or “FACT OA2”) each were Phase 3 trials evaluating fasinumab in adults with moderate-to-severe chronic pain associated with osteoarthritis (OA) of the knee or hip. All three of these trials enrolled patients with OA of the knee or hip who had inadequate pain relief with acetaminophen and were intolerant to or had inadequate pain relief with opioids, or were unwilling or unable to take opioids. Complete inclusion and exclusion criteria for the trials are described at clinicaltrials.gov/ct2/show/NCT03161093, clinicaltrials.gov/ct2/show/NCT03304379, and clinicaltrials.gov/ct2/show/NCT02683239.\nFACT OA1 and FACT OA2 assessed the efficacy of fasinumab in comparison to nonsteroidal anti-inflammatory drugs (NSAIDs; naproxen, diclofenac, or celecoxib) for treatment of OA. FACT OA1 includes results from a total of 1,801 patients randomized to one of four treatment arms: fasinumab 1 mg SC once every 8 weeks (Q8W) (n=304), fasinumab 1 mg SC once every 4 weeks (Q4W) (n=639), naproxen 500 mg twice daily (n=644), or placebo (n=214). In FACT OA2, patients were randomized into one of six treatment groups: fasinumab 1 mg SC once every 4 weeks (Q4W), fasinumab 3 mg SC once every 4 weeks (Q4W), fasinumab 6 mg SC once every 8 weeks (Q8W), celecoxib 200 mg once daily, diclofenac 75 mg twice daily, or placebo. While the FACT OA2 trial was still ongoing, enrollment into the fasinumab 3 mg Q4W and 6 mg Q8W groups was stopped for safety considerations; patients enrolled in those dose regimens discontinued study drug and entered the post-treatment follow-up period.\nFasinumab patients in both trials also reported improvements in their pain and physical function (WOMAC score) compared to those treated with the highest-approved prescription doses of NSAIDS."}
{"smiles": "COc1ccc2cc([C@H](C)C(=O)O)ccc2c1", "note": "[Naproxen, naproxen, reference compound]", "values": [{"measurement": "WOMAC pain, change from baseline", "result": "−33", "unit": "%"}, {"measurement": "WOMAC pain, change from baseline (score, in brackets)", "result": "(−2.13)"}, {"measurement": "WOMAC physical function, change from baseline", "result": "−31", "unit": "%"}, {"measurement": "WOMAC physical function, change from baseline (score, in brackets)", "result": "(−1.98)"}]}
